Measurements as given in patent US7560468B2, “Substituted 1,4,8-triazaspiro[4,5]decan-2-one compounds” (Gruenenthal GmbH, priority 2004, dated 2009).

Columns and labels:
[1] = test system: batrachotoxin (BTX) binding site of the sodium channel; assay: Affinity to the batrachotoxin (BTX) binding site of the sodium channel; settings: rat cerebrocortex synaptosomes, [3H]-batrachotoxinin A20 α-benzoate 10 nM; test concentration not given
NA transporter = assay: Inhibition of noradrenalin uptake in synaptosomes; format: biochemical
5-HT transporter = biological target: T1, 5-HT transporter (Rattus norvegicus, UniProt P31652); assay: Inhibition of 5-HT uptake in synaptosomes; format: biochemical; settings: for inhibition at 1 µM: read-out: Uptake_5-HT, rat, 1 μM, % inhibition
T1 construct: from tissue; host or cells: rat brain synaptosomes (marrow/medulla and pons), P2 fraction
T1 sequence (P31652 whole entry): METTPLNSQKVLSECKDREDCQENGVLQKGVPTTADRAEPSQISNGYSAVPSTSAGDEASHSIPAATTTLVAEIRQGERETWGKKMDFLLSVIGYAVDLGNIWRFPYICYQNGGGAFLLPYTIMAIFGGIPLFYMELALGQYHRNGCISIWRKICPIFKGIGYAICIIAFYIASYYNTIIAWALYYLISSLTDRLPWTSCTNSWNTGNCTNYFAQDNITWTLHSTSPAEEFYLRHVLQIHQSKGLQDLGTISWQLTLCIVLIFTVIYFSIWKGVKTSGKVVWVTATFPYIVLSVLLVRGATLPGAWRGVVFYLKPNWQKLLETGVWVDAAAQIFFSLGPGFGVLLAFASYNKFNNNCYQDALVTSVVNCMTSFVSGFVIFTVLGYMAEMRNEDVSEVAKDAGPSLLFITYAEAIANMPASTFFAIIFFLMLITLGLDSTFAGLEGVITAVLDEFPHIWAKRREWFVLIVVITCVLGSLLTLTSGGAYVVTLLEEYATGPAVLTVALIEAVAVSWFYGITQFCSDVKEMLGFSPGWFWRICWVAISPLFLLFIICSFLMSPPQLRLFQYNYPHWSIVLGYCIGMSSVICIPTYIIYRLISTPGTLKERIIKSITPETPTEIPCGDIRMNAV

Row | Structure (SMILES) | BTX Inhibition [1] | Uptake (NA), rat, 10 μM, % inhibition (NA transporter) | Uptake_5-HT, rat, 1 μM, % inhibition (5-HT transporter) | inhibition at 1 µM (5-HT transporter)
1 | CCOC(=O)CN1C(=O)C(Cc2ccccc2)NC12CCN(S(=O)(=O)c1cc([N+](=O)[O-])ccc1C)CC2 (stereo not shown) [Example 46, Ethyl[3-benzyl-8-(2-methyl-5-nitrobenzolsulfonyl)-2-oxo-1,4,8-triazaspiro[4,5]dec-1-yl]-acetate] | 30 | 33% | 90% | 
2 | CCOC(=O)CN1C(=O)C(Cc2ccccc2)NC12CCN(C(=O)NCc1ccc(Cl)c(Cl)c1)CC2 (stereo not shown) [Example 225, Ethyl[3-benzyl-8-(3,4-dichlorobenzylcarbamoyl)-2-oxo-1,4,8-triazaspiro[4,5]dec-1-yl]-acetate] | 77 | 33% |  | 43%
3 | Cc1cccc(NC(=S)N2CCC3(CC2)NC(Cc2ccccc2)C(=O)N3Cc2ccccc2F)c1 (stereo not shown) [Example 166, 3-Benzyl-1-(2-fluorobenzyl)-2-oxo-1,4,8-triazaspiro[4,5]decan-8-thiocarboxylic acid m-tolylamide] | 85 | 39% |  | 64%
4 | C=CCN1C(=O)C(C(C)C)NC12CCN(C(=O)Nc1ccc(OC(F)(F)F)cc1)CC2 (stereo not shown) [Example 220, 1-Allyl-3-isopropyl-2-oxo-1,4,8-triazaspiro[4,5]decan-8-carboxylic acid (4-trifluoromethoxy-benzol)amide] | 44 | 39% | 39% | 
5 | CCCCS(=O)(=O)N1CCC2(CC1)NCC(=O)N2Cc1ccc(C(=O)OC)cc1 [Example 53, Methyl 4-[8-(butan-1-sulfonyl)-2-oxo-1,4,8-triazaspiro[4,5]dec-1-ylmethyl]-benzoate] | 31 | 30% |  | 45%
6 | CCOc1ccc(NC(=O)N2CCC3(CC2)NC(CCSC)C(=O)N3Cc2ccccc2)cc1 (stereo not shown) [Example 213, 1-Benzyl-3-(2-methylsulfanylethyl)-2-oxo-1,4,8-triazaspiro[4,5]decan-8-carboxylic acid (4-ethoxy-benzol)amide] | 41 | 37% | 39% | 
7 | CCCCN1C(=O)C(CCSC)NC12CCN(C(=S)Nc1ccc(OCC)cc1)CC2 (stereo not shown) [Example 158, 1-Butyl-3-(2-methylsulfanylethyl)-2-oxo-1,4,8-triazaspiro[4,5]decan-8-thiocarboxylic acid (4-ethoxy-benzol)amide] | 35 | 41% | 33% | 
8 | COc1cc(C)c(S(=O)(=O)N2CCC3(CC2)NC(C(C)C)C(=O)N3Cc2ccccc2F)c(C)c1C (stereo not shown) [Example 11, 1-(2-Fluorobenzyl)-3-isopropyl-8-(4-methoxy-2,3,6-trimethylbenzolsulfonyl)-1,4,8-triazaspiro[4,5]decan-2-one] |  | 37% | 52% | 
9 | CSCCC1NC2(CCN(C(=O)Nc3ccccc3)CC2)N(Cc2ccccc2C#N)C1=O (stereo not shown) [Example 224, 1-(2-Cyanobenzyl)-3-(2-methylsulfanylethyl)-2-oxo-1,4,8-triazaspiro[4,5]decan-8-carboxylic acid benzolamide] | 30 | 38% | 37% | 
10 | CCOC(=O)CN1C(=O)C(Cc2ccccc2)NC12CCN(C(=S)NCC1CCCCC1)CC2 (stereo not shown) [Example 159, Ethyl[3-benzyl-8-(cyclohexylmethylthiocarbamoyl)-2-oxo-1,4,8-triazaspiro[4,5]dec-1-yl]-acetate] | 84 | 36% |  | 33%
11 | CSCCC1NC2(CCN(C(=O)Nc3cccc(C#N)c3)CC2)N(Cc2ccc(F)cc2)C1=O (stereo not shown) [Example 244, 1-(4-Fluorobenzyl)-3-(2-methylsulfanylethyl)-2-oxo-1,4,8-triazaspiro[4,5]decan-8-carboxylic acid (3-cyanobenzol)amide] | 47 | 32% | 52% | 
12 | CSCCC1NC2(CCN(S(=O)(=O)c3ccc(C(C)=O)cc3)CC2)N(Cc2cccc(C#N)c2)C1=O (stereo not shown) [Example 10, 3-[8-(4-Acetylbenzolsulfonyl)-3-(2-methylsulfanylethyl)-2-oxo-1,4,8-triazaspiro[4,5]dec-1-ylmethyl]-benzonitrile] |  | 39% | 35% | 
13 | CCCCN1C(=O)C(C(C)C)NC12CCN(C(=S)NCc1ccc(Cl)cc1)CC2 (stereo not shown) [Example 150, 1-Butyl-3-isopropyl-2-oxo-1,4,8-triazaspiro[4,5]decan-8-thiocarboxylic acid 4-chlorobenzylamide] | 73 | 30% |  | 51%
14 | CSCCC1NC2(CCN(C(=S)Nc3ccccc3C)CC2)N(Cc2ccc3ccccc3c2)C1=O (stereo not shown) [Example 151, 3-(2-Methylsulfanylethyl)-1-naphthalin-2-ylmethyl-2-oxo-1,4,8-triazaspiro[4,5]decan-8-thiocarboxylic acid o-tolylamide] | 84 | 42% |  | 64%
15 | O=C1NC2(CCN(S(=O)(=O)c3ccccc3F)CC2)NC1Cc1ccccc1 (stereo not shown) [Example 7, 3-Benzyl-8-(2-fluorobenzolsulfonyl)-1,4,8-triazaspiro[4,5]decan-2-one] |  | 32% | 54% | 
16 | CCCCN1C(=O)C(C(C)C)NC12CCN(C(=O)Nc1cccc(C(=O)OCC)c1)CC2 (stereo not shown) [Example 215, Ethyl 3-[(1-butyl-3-isopropyl-2-oxo-1,4,8-triazaspiro[4,5]decan-8-carbonyl)amino]-benzoate] | 51 | 33% |  | 29%
17 | COc1ccccc1NC(=S)N1CCC2(CC1)NC(Cc1ccccc1)C(=O)N2Cc1ccccc1F (stereo not shown) [Example 108, 3-Benzyl-1-(2-fluorobenzyl)-2-oxo-1,4,8-triazaspiro[4,5]decan-8-thiocarboxylic acid (2-methoxy-benzol)amide] | 86 | 31% | 86% | 
18 | CCCCN1C(=O)C(C(C)C)NC12CCN(C(=O)Nc1cc(OC)ccc1OC)CC2 (stereo not shown) [Example 216, 1-Butyl-3-isopropyl-2-oxo-1,4,8-triazaspiro[4,5]decan-8-carboxylic acid (2,5-dimethoxy-benzol)amide] |  | 30% | 46% | 
19 | CN1C(=O)C(Cc2ccccc2)NC12CCN(C(=S)NCc1ccc(Cl)cc1)CC2 (stereo not shown) [Example 175, 3-Benzyl-1-methyl-2-oxo-1,4,8-triazaspiro[4,5]decan-8-thiocarboxylic acid 4-chlorobenzylamide] | 63 | 32% |  | 
20 | CSCCC1NC2(CCN(C(=S)NCC3CCCO3)CC2)N(Cc2ccc(F)cc2)C1=O (stereo not shown) [Example 168, 1-(4-Fluorobenzyl)-3-(2-methylsulfanylethyl)-2-oxo-1,4,8-triazaspiro[4,5]decan-8-thiocarboxylic acid (tetrahydrofuran-2-ylmethyl)amide] | 38 | 35% |  | 
21 | CSCCC1NC2(CCN(C(=S)NC(C)c3ccccc3)CC2)N(Cc2cccc(C#N)c2)C1=O (stereo not shown) [Example 181, 1-(3-Cyanobenzyl)-3-(2-methylsulfanylethyl)-2-oxo-1,4,8-triazaspiro[4,5]decan-8-thiocarboxylic acid (1-benzol-ethyl)amide] | 57 | 40% |  | 
22 | CCCCN1C(=O)C(CCSC)NC12CCN(C(=S)Nc1c(F)c(F)c(F)c(F)c1F)CC2 (stereo not shown) [Example 173, 1-Butyl-3-(2-methylsulfanylethyl)-2-oxo-1,4,8-triazaspiro[4,5]decan-8-thiocarboxylic acid pentafluorobenzolamide-amide] | 40 | 45% |  | 
23 | CC(C)CC1NC2(CCN(C(=O)NCc3ccc(Cl)c(Cl)c3)CC2)N(Cc2ccccc2C#N)C1=O (stereo not shown) [Example 217, 1-(2-Cyanobenzyl)-3-isobutyl-2-oxo-1,4,8-triazaspiro[4,5]decan-8-carboxylic acid 3,4-dichlorobenzylamide] | 78 | 39% |  | 
24 | CCCCN1C(=O)C(CCSC)NC12CCN(C(=S)NCc1ccccc1)CC2 (stereo not shown) [Example 160, 1-Butyl-3-(2-methylsulfanylethyl)-2-oxo-1,4,8-triazaspiro[4,5]decan-8-thiocarboxylic acid benzylamide] | 63 | 42% |  | 
25 | C#CCN1C(=O)C(CC(C)C)NC12CCN(C(=S)Nc1cccc(C(C)=O)c1)CC2 (stereo not shown) [Example 163, 3-Isobutyl-2-oxo-1-prop-2-ynyl-1,4,8-triazaspiro[4,5]decan-8-thiocarboxylic acid (3-acetylbenzol)amide] |  | 34% | 38% | 
